What was measured:
[1] = system: humans; settings: cited from earlier work
[2] = system: mouse islets; experiment: Mouse islet perifusion assay; type: cell-based; settings: 10 µM compound
Method: (§1) Mouse islets were isolated and tested for stimulation of GSIS as described. Human islets were purchased from Prodo labs or were obtained from the National Institutes of Health and Juvenile Diabetes Research Foundation supported Islet Cell Resource Consortium (http://icr.coh.org). Islet inositol phosphate assays were performed on islets cells that had been dispersed with trypsin. 10,000 islet cells were plated/well of a 96-well plate and were loaded with ^3H-myo-inositol (0.5 µCi/well) in RPMI overnight prior to treatment. The next day, response to different stimuli was tested in HBSS containing 10 mM LiCl and 0.1% HSA (w/v) for 1 hour at 37°C. Accumulated ^3H-inositol phosphate was measured after capture to SPA beads. Islet perifusion experiments were performed on mouse islets loaded into a Brandel Suprafusion system. Twenty islets were size-matched and loaded per perifusion chamber. Islets were perifused in KRBH containing, sequentially, 3 mM glucose, then 3 mM glucose containing 10 µM drug, 16.7 mM glucose containing 10 µM drug and finally returned to 3 mM glucose containing 10 µM drug. Insulin was measured using an insulin ELISA kit (Alpco). Fetal rat intestinal cells were isolated from e19-day old fetuses of pregnant Sprague-Dawley rats. Briefly, fetal intestines were isolated and digested in HBSS buffer containing 0.5 mg/ml collagenase (Sigma), 0.5 mg/ml of hyaluronidase (Sigma) and 0.05 mg/ml of deoxyribonuclease I (Roche) for 30 minutes at 37°C. The digestion was quenched using HBSS containing 15% FBS. Fetal rat intestinal cells were washed and cultured overnight in DMEM containing 5% FBS in 96-well plates. To test for secretion of GLP-1 and GIP in response to treatments, we incubated cells for 1 hour with treatments in KRBH buffer containing 0.05% BSA (w/v). GLP-1 and GIP1 secreted into the media was measured using ELISA kits specific for GLP-1 (Linco) or GIP (Millipore).

[3] = system: fetal rat intestinal cells; experiment: GLP-1 secretion assay with fetal rat intestinal cells; type: cell-based; settings: 1 hour
Description: (§2) Increased GLP-1 and GIP would be expected to have additional benefits in type 2 diabetics. […] We tested for potential effects on incretin secretion in vitro by using cells isolated from fetal rat intestines.
Mouse islets were isolated and tested for stimulation of GSIS as described. Human islets were purchased from Prodo labs or were obtained from the National Institutes of Health and Juvenile Diabetes Research Foundation supported Islet Cell Resource Consortium (http://icr.coh.org). Islet inositol phosphate assays were performed on islets cells that had been dispersed with trypsin. 10,000 islet cells were plated/well of a 96-well plate and were loaded with ^3H-myo-inositol (0.5 µCi/well) in RPMI overnight prior to treatment. The next day, response to different stimuli was tested in HBSS containing 10 mM LiCl and 0.1% HSA (w/v) for 1 hour at 37°C. Accumulated ^3H-inositol phosphate was measured after capture to SPA beads. Islet perifusion experiments were performed on mouse islets loaded into a Brandel Suprafusion system. Twenty islets were size-matched and loaded per perifusion chamber. […] Insulin was measured using an insulin ELISA kit (Alpco). […] GLP-1 and GIP1 secreted into the media was measured using ELISA kits specific for GLP-1 (Linco) or GIP (Millipore).

[4] = system: HF/STZ mice; experiment: OGTT in high-fat fed, streptozotocin-treated (HF/STZ) type 2 diabetic mice; type: in vivo, mouse
Method: (§3) All procedures on animals were approved by the Amgen San Francisco Institutional Animal Care and Use Committee (approved protocols #11–04 and #2007–00106). The Amgen San Francisco vivarium is an AAALAC accredited facility. Animals were housed under a 12-h light, 12-h dark cycle (lights-on 0600 h and lights-off 1800 h) and were allowed ad libidum access to chow and water. The HF/STZ mice were established as previously described. Briefly, C57BL/6j mice (Jackson labs) at 4 weeks of age were fed a high-fat diet (BioServ S1850, 35% fat) for 3-weeks and then injected with 95 mg/kg streptozotocin (Sigma) ip to induce beta cell dysfunction. The animals continued on the same high fat diet for 3–6 additional weeks. Animals were then randomized into treatment groups based on fasting blood glucose and insulin measures. NONcNZO10/LtJ (RCS10) male mice (Jackson labs) were used at 12-weeks of age and randomized for treatment based on fasting glucose levels. For OGTT experiments, drugs were formulated in 1% HPMC, 10% HPbCD, 1% Tween-80 and dosed via oral gavage. Glucose was administered at 2 g/kg 1-hour post drug dose by oral gavage.
(§4) For all glucose tolerance tests, glucose and insulin measurements were taken from tail vein samples at various time-points. Blood glucose values were measured on an Accu-Chek glucometer (Roche Diagnostics), while insulin levels were determined using an ELISA (Alpco).

[5] = Unbound plasma drug concentration in HF/STZ mice; type: in vivo; settings: C57BL/6j, mouse, 100 mg/kg oral, 1-hour post drug administration, by MS, read-out: free drug level in plasma
[6] = target: mouse GPR40 (Mus musculus, UniProt Q76JU9); experiment: Mouse GPR40 inositol phosphate accumulation assay; type: cell-based
mouse GPR40, sequence (Q76JU9 whole entry): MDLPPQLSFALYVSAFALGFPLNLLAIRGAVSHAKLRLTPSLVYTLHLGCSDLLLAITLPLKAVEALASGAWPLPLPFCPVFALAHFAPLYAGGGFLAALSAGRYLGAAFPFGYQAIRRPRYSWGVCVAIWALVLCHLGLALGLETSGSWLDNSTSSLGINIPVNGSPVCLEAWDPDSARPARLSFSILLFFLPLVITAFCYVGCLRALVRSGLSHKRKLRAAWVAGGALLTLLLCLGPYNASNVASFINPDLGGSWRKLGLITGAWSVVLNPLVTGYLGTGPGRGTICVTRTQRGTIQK
Method: (§5) GPR40 aequorin, plasmid titration, and inositol phosphate assays were performed as described. For aequorin assays, in addition to transient transfection of GPR40 into CHO cells, a CHO cell line stably expressing both GPR40 and aequorin was generated. GLUTag cells were obtained under a license from Dr. Daniel Drucker, University of Toronto. Competition binding experiments were performed using membranes prepared from A9_GPR40 cells. […] Competition binding assays were carried out in 20 mM Hepes pH 7.5, 5 mM MgCl2, 100 mM NaCl and 0.1% (w/v) free fatty acid BSA and bound radioligand was collected on 96-well GF/C filter plates.

[7] = system: HF/STZ mice; experiment: Single oral dose without glucose challenge in HF/STZ mice: GLP-1, insulin, glucose, GIP; type: in vivo, mouse
Method: The increase in insulin secretion by GPR40 agonists is due to direct stimulation of GPR40 receptors on pancreatic β-cells, but may also be derived from stimulation of the gut peptides GLP-1 and GIP, which subsequently act on the GLP-1 and GIP G protein-coupled receptors found on pancreatic β-cells. […] No glucose challenge was performed in order to isolate the effects of the compounds alone.
as §3

[8] = system: Zucker fatty rats; settings: 21-day, qd dosing; cited from earlier work
[9] = target: T1, GPR40 (Homo sapiens, UniProt O14842); experiment: Aequorin Ca2+ flux assay in CHO cell line stably expressing GPR40; type: cell-based; settings: CHO-GPR40 stable cell line; for Emax: compared to natural free fatty acid ligands, read-out: Emax (efficacy)
T1 construct: expressed in transfected cells; host or cells: CHO cell line stably expressing GPR40 and aequorin
T1 sequence (O14842 whole entry): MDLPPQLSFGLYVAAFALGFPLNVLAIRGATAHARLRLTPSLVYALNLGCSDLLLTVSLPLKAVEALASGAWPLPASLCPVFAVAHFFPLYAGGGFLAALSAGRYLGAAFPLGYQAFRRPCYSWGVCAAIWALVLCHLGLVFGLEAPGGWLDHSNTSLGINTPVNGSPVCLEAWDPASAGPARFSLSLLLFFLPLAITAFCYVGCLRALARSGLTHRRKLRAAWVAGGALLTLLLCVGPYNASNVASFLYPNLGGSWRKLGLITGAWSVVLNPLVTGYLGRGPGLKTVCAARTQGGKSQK
Method: Since GPR40 agonists with greater intrinsic activity may have improved anti-diabetic properties, we focused our efforts to discover potent synthetic full agonists.
as §5

[10] = target: T1, GPR40; experiment: Inositol phosphate accumulation assay in A9 cells stably expressing GPR40 (A9_GPR40); type: cell-based; settings: for agonist character: inositol phosphate accumulation, A9 cells stably expressing GPR40 (figure S1)
Method: as §5
(A) Structure of selected GPR40 agonists. (B) GPR40 agonists were tested in parallel in vitro in an inositol phosphate accumulation assay in A9 cells stably expressing GPR40. (TIF) Click here for additional data file.

[11] = target: T1, GPR40; experiment: Competition binding with 3H-AM-1638 on A9_GPR40 membranes; settings: unlabelled competitor
Method: as §5

[12] = target: T2, GPR41 (FFAR3) (Homo sapiens, UniProt O14843); experiment: GPR41 aequorin assay; type: cell-based; settings: up to 10 µM
T2 construct: expressed in transfected cells
T2 sequence (O14843 whole entry, species assumed): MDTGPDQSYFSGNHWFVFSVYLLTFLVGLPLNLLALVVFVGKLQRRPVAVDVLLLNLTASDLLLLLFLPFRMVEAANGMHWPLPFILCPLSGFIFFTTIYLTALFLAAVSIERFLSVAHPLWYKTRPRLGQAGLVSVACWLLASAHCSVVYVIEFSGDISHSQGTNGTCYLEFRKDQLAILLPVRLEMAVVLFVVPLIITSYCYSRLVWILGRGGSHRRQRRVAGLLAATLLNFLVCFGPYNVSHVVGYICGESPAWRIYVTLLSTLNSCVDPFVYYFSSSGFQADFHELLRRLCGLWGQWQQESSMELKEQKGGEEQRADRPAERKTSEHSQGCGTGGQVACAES
Description: (§6) (A) GPR41 (FFAR3) aequorin assay. GPR41 was force coupled to the calcium signaling pathway by co-transfecting the cells with Gqmyri5. (B) GPR43 (FFAR2) aequorin assay. The short chain fatty acid propionate acts as a natural agonist ligand for GPR41 and GPR43. (C) GPR120 aequorin assay. The unsaturated fatty acids α-LNN and DHA act as natural agonist ligands for GPR120. (D) PPAR-gamma luciferase assay using the thiazolidinedione rosiglitazone as a positive control. […] (TIF) Click here for additional data file.

[13] = target: T3, GPR43 (FFAR2) (Homo sapiens, UniProt O15552); experiment: GPR43 aequorin assay; type: cell-based; settings: up to 10 µM
T3 construct: expressed in transfected cells
T3 sequence (O15552 whole entry, species assumed): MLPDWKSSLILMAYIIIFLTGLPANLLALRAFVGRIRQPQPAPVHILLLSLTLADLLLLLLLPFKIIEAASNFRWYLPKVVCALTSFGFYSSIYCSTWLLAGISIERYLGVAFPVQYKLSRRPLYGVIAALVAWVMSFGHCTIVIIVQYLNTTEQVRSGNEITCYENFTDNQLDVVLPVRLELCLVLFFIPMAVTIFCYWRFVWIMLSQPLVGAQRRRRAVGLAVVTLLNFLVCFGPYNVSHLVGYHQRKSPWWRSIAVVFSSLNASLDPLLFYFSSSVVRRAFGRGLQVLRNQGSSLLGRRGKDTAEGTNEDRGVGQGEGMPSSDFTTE
Description: as §6

[14] = target: T4, GPR120 (Homo sapiens, UniProt Q5NUL3); experiment: GPR120 aequorin assay; type: cell-based; settings: weak activity
T4 construct: expressed in transfected cells
T4 sequence (Q5NUL3 whole entry, species assumed): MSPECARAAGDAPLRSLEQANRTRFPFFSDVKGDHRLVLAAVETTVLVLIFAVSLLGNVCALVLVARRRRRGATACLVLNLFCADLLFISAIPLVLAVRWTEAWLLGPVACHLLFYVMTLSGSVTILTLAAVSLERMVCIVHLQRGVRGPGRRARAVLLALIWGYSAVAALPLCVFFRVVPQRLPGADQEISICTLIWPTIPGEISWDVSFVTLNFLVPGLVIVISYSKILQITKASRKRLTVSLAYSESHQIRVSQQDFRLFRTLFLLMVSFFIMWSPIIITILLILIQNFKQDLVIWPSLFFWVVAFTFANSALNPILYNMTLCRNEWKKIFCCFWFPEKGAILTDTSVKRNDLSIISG
Description: as §6

[15] = target: PPAR alpha (Homo sapiens, UniProt Q07869); experiment: PPAR-alpha luciferase reporter assay; type: cell-based; settings: concentrations up to 10 µM
PPAR alpha, sequence (Q07869 whole entry, species assumed): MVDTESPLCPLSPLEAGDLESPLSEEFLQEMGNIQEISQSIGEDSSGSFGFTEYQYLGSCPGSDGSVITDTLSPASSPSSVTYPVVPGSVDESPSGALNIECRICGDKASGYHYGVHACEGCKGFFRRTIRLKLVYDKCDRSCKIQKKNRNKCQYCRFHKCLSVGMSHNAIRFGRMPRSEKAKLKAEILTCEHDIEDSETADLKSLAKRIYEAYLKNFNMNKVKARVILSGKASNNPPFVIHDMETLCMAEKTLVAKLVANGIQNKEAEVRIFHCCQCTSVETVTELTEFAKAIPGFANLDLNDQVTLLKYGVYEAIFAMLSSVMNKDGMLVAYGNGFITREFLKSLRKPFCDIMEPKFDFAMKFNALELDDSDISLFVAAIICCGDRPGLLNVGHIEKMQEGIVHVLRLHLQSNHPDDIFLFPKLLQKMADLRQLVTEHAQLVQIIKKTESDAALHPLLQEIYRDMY

[16] = target: PPAR delta (Homo sapiens, UniProt Q03181); experiment: PPAR-delta luciferase reporter assay; type: cell-based; settings: concentrations up to 10 µM
PPAR delta, sequence (Q03181 whole entry): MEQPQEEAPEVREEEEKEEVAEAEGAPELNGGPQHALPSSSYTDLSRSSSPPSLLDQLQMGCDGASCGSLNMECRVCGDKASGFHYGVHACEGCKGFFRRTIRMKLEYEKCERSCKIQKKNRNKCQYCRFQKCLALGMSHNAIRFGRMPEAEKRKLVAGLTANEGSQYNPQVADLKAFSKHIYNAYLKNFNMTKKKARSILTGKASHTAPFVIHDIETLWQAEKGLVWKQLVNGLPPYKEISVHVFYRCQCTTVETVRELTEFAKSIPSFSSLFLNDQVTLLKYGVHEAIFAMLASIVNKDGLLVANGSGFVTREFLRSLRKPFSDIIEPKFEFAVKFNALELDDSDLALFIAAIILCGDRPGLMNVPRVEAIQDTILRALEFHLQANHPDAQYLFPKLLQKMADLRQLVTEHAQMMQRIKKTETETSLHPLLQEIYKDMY

[17] = target: PPAR gamma (Homo sapiens, UniProt P37231); experiment: PPAR-gamma luciferase assay; type: cell-based; settings: concentrations up to 10 µM
PPAR gamma, sequence (P37231 whole entry): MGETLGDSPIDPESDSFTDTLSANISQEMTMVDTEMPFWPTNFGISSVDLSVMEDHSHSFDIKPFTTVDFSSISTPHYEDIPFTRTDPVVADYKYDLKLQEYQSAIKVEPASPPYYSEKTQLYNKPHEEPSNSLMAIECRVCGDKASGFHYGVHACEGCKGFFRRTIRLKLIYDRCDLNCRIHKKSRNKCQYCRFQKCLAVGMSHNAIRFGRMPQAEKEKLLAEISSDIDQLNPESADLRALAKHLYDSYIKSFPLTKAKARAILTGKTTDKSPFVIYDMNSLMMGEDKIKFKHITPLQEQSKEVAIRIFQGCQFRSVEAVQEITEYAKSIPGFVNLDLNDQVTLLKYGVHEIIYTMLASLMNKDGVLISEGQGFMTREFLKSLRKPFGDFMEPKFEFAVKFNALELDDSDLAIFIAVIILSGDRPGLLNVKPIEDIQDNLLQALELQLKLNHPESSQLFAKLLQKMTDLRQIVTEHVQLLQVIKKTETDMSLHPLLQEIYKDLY
Description: as §6

[18] = system: mouse islets; experiment: GSIS assay in mouse islets; type: cell-based; settings: 16.7 mM glucose
Method: as §1

[19] = system: islets isolated from GPR40 knockout mice; experiment: GSIS assay with islets from GPR40 knock-out mice; type: cell-based, mouse
Method: as §1

[20] = system: human islet cells; experiment: Inositol phosphate assay with dispersed human islet cells; type: cell-based
Method: (§7) Mouse islets were isolated and tested for stimulation of GSIS as described. Human islets were purchased from Prodo labs or were obtained from the National Institutes of Health and Juvenile Diabetes Research Foundation supported Islet Cell Resource Consortium (http://icr.coh.org). Islet inositol phosphate assays were performed on islets cells that had been dispersed with trypsin. 10,000 islet cells were plated/well of a 96-well plate and were loaded with ^3H-myo-inositol (0.5 µCi/well) in RPMI overnight prior to treatment. The next day, response to different stimuli was tested in HBSS containing 10 mM LiCl and 0.1% HSA (w/v) for 1 hour at 37°C. Accumulated ^3H-inositol phosphate was measured after capture to SPA beads. Islet perifusion experiments were performed on mouse islets loaded into a Brandel Suprafusion system. Twenty islets were size-matched and loaded per perifusion chamber. Islets were perifused in KRBH containing, sequentially, 3 mM glucose, then 3 mM glucose containing 10 µM drug, 16.7 mM glucose containing 10 µM drug and finally returned to 3 mM glucose containing 10 µM drug. Insulin was measured using an insulin ELISA kit (Alpco). Fetal rat intestinal cells were isolated from e19-day old fetuses of pregnant Sprague-Dawley rats. […] GLP-1 and GIP1 secreted into the media was measured using ELISA kits specific for GLP-1 (Linco) or GIP (Millipore).

[21] = system: human islets; experiment: GSIS assay with human islets; type: cell-based; settings: 12.5 mM glucose
Method: as §7

[22] = system: GLUTag cells; experiment: Inositol phosphate accumulation assay in GLUTag enteroendocrine L-cell line; type: cell-based, mouse
Method: as §2, §5

[23] = system: wild type and GPR40 knockout mice; experiment: OGTT and GLP-1 secretion in wild type and GPR40 null mice; type: in vivo, mouse; settings: OGTT, single oral dose
Method: as §3, §4

Cc1cc(OCCCS(C)(=O)=O)cc(C)c1-c1cccc(COc2ccc3c(c2)OC[C@H]3CC(=O)O)c1 [TAK-875]
glycemic parameters in type 2 diabetic subjects [1]: improve glycemic parameters | incretin levels in type 2 diabetic patients [1]: not associated with a change in incretin levels

CC#C[C@@H](CC(=O)O)c1ccc(OCc2cccc(-c3ccc(C(F)(F)F)cc3)c2)cc1 [AMG 837, reference compound]
insulin stimulation compared to vehicle control ([2]; 3 mM glucose): neither AMG 837 nor AM-1638 stimulated insulin | insulin secretion ([2]; 16.7 mM glucose): increased both first and second phase insulin secretion | GLP-1 release in vitro [3]: could stimulate GLP-1 release | Glucose AUC improvement ([4]; OGTT, 100 mg/kg oral, 1 hour before glucose): 19% | doses at which maximally efficacious ([4]; preliminary experiments): ≥ 60 mg/kg | concentration at 1 h [5]: 826 ± 66 nM | EC50 [6]: 11 ± 0.05 nM | blood glucose levels ([7]; HF/STZ mice, single oral dose, no glucose challenge): stabilized blood glucose levels | GLP-1 or GIP levels in vivo ([7]; oral gavage, doses as high as 100 mg/kg): does not substantially increase | glucose and insulin levels in healthy volunteers ([1]; phase 1 clinical trials, ref Amgen, data on file): did not lower glucose or increase insulin levels | anti-diabetic effects after repeated dosing [8]: sustained anti-diabetic effects

C/C=C/[C@H](CC(=O)O)c1ccc(OCc2ccc(-c3cc(OC)ccc3F)cc2)cc1 [AM-8182]
EC50 [9]: 2400 ± 100 nM | Emax [9]: 106%

O=C(O)CCc1ccc(NCc2cccc(Oc3ccccc3)c2)cc1 [GW-9508, reference compound]
agonist character [10]: partial agonists

CC[C@H](CC(=O)O)c1cccc(OCc2ccc(-c3cc(OC)ccc3F)c([C@@H]3CCCC3(C)C)c2)c1F [AM-6226]
EC50 [9]: 130 ± 30 nM | Emax [9]: 105% | intrinsic activity, fold greater than AMG 837 ([10]; inositol phosphate assay): ~2 fold | EC50 ([10]; inositol phosphate assay, 1-hour accumulation, read-out: Half-maximal potency): 5.7 ± 0.8 nM | displacement of 3H-AM-1638 [11]: displaced ^3H-AM-1638 | activation of GPR41 (FFAR3) [12]: did not activate | activation of GPR43 (FFAR2) [13]: did not activate | EC50 [14]: ~5000 nM | activation of PPAR alpha [15]: did not activate | activation of PPAR delta [16]: did not activate | activation of PPAR gamma [17]: did not activate | increase of insulin secretion, fold from that of AMG 837 [18]: 3–4 fold | EC50 ([18]; read-out: EC50 for potentiation of insulin secretion): 940 ± 600 nM | GSIS response of GPR40 knockout islets [19]: did not respond | IP production efficacy, fold greater than AMG 837 [20]: 8–10 × | stimulation of insulin secretion compared with AMG 837 [21]: significantly greater | inositol phosphate accumulation, fold increase compared to AMG 837 [22]: 3–4 fold

Cc1ccccc1C#Cc1ccc(CCC(=O)O)cc1 [TUG-424, reference compound]
agonist character [10]: partial agonists

N[C@@H](CC(=O)N1CCn2c(nnc2C(F)(F)F)C1)Cc1cc(F)c(F)cc1F [sitagliptin, reference compound]
improvement in pre- and post-challenge glucose levels ([23]; GPR40 knockout mice): maintained in both | improvement in pre- and post-challenge glucose levels ([23]; wild type mice): maintained in both

CC#CC(CC(=O)O)c1ccc(OCc2ccc(-c3cccc(OC)c3)cc2)cc1 (racemic) [(±)-AM-8596]
EC50 [9]: 1500 ± 170 nM | Emax [9]: 98%

Exendin-4: exerts its effects via GLP-1R [reference compound]
GSIS response of GPR40 knockout islets [19]: did respond

Reference: PMC3467217, “A Potent Class of GPR40 Full Agonists Engages the EnteroInsular Axis to Promote Glucose Control in Rodents” (PLoS ONE, 2012)
